Consider 2 compounds from US7205298B2, “Substituted triazine kinase inhibitors” (Janssen Pharmaceutica N.V., priority 2002, dated 2007).

Several values for one entry are separate records, joined by “and”; a condition that tells them apart may be missing. Equal entries are not always repeated.

Test [1] has as its system HeLa cervical adenocarcinoma. The experiment in a line: Inhibition of cell proliferation, 14C-thymidine incorporation, HeLa. The following applies: Homo sapiens. Type of test: cell-based. Here is the method: The ability of a test compound to inhibit the proliferation of cell growth was determined by measuring incorporation of ^14C-labelled thymidine into newly synthesized DNA within the cells. This method was used on cell lines derived from carcinomas originating from several tissues such as HeLa cervical adenocarcinoma (American Type Culture Collection (ATCC), Virginia, Cat. #CCL-2), HCT-116 colon carcinoma (CCL-247), MDA-MB-231 (Xenogen Corp.), PC-3 prostate adenocarcinoma (ATCC CRL-1435) and A375 malignant melanoma (ATCC CRL-1619).
Using this method, the effect of a compound on cell growth of cells with many different phenotypes can be determined. Cells were trypsinized and counted and 3000–8000 cells were added to each well of a 96-well CytoStar tissue culture treated scintillating microplate (Amersham #RPNQ0160) in complete medium in a volume of 100 μl. Cells were incubated for 24 hours in complete medium at 37° C. in an atmosphere containing 5% CO2. 1 μL of test compound in 100% DMSO was then added to the wells of the plate. DMSO only was added to control wells. Cells were incubated for 24 more hours in complete medium at 37° C. in an atmosphere containing 5% CO2. […] The degree of methyl ^14C-thymidine incorporation was quantified on a Packard Top Count.

In test [2] the target is T1, VEGF-R (rat VEGF-R2 kinase domain) (Rattus norvegicus, UniProt O08775).
T1 construct: 6xHis (polyhistidine) (N)
Description: VEGF-R Screening Assay. It counts as biochemical. As to the method: A kinase reaction mixture was prepared containing 50 mM Tris-HCl pH=8, 10 mM MgCl2, 0.1 mM Na3PO4, 1 mM DTT, 10 μM ATP, 0.025 μM biotinylated peptide substrate (also referred to herein as PLC-1 biotinylated peptide substrate and PDGF receptor substrate, sequence provided in the peptide substrate table) and 0.8 μCuries per well ^33P-γ-ATP (2000–3000 Ci/mmol). 70 μL of the kinase reaction mixture was dispensed into the well of a streptavidin coated FlashPlate™ (Cat. # SMP103, NEN, Boston, Mass.). Then 1 μL of test compound stock in 100% DMSO was added to the wells resulting in a final concentration of 1% DMSO in the reaction with a 100 μL final reaction volume. Next, soluble rat VEGF tyrosine kinase containing an N-terminal 6XHIS tag was diluted in 50 mM Tris-HCl pH=8.0, 0.1% BSA at a concentration of 5 ng per μL and 30 μL (150 ng enzyme per test well) was added to each well to initiate the reaction. The reaction was incubated for one hour at 30° C. At the end of the 1-hour incubation, the reaction was terminated by aspirating the reaction mixture from the plate and washing the wells twice with PBS containing 100 mM EDTA. The PLC1 biotinylated peptide substrate became immobilized on the Flashplate™ and the incorporation of ^33P-γ-ATP was measured by reading the plate on a scintillation counter. Inhibition of the enzymatic activity of the VEGF-R was measured by observing a reduced amount of ^33P-γ-ATP incorporated into the immobilized peptide.
Assays to test compound inhibition of other kinases were preformed using methods that measure the amount of phosphorylation of a biotinylated peptide substrate. Biotinylated peptide substrates were selected from the literature as appropriate for the enzyme being evaluated. The general procedure used to assay for kinase activity is as follows: a kinase reaction mix was prepared in 50 mM Tris-HCl pH=8, 10 mM MgCl2, 0.1 mM Na3VO4, 1 mM DTT, 10 μM ATP, 0.25–1 μM biotinylated peptide substrate, 0.2–0.8 μCuries per well ^33P-γ-ATP (2000–3000 Ci/mmol). Assay conditions vary slightly for each protein kinase, for example, insulin receptor kinase requires 10 mM MnCl2 for activity and Calmodulin-dependent protein kinase requires calmodulin and 2 mM CaCl2. The reaction mixture was dispensed into the wells of a streptavidin coated Flashplate and 1 μL test compound in 100% DMSO was added to a 100 μL reaction volume resulting in a final concentration of 1% DMSO in the reaction. Enzyme was diluted in 50 mM Tris-HCl pH=8.0, 0.1% BSA and added to each well. The reaction was incubated for one hour at 30° C. in the presence of a test compound. After one hour the reaction mix was aspirated from the plate and the plate was washed with PBS containing 100 mM EDTA. The plate was read on a scintillation counter to determine ^33P-γ-ATP incorporated into the immobilized peptide substrate. Test compounds were assayed in duplicate at 8 concentrations (100 μM, 10 μM, 1 μM, 100 nM, 10 nM, 1 nM, 100 pM, 10 pM). A maximum and minimum signal for the assay was determined on each plate. […] Known inhibitor compounds appropriate for the kinase being assayed were also included on each plate.
The form of VEGF-R (vascular endothelial growth factor receptor-2) used was a fusion protein containing a polyhistidine tag at the N-terminus followed by amino acids 786–1343 of the rat VEGF-R2 kinase domain (GenBank Accession #U93306). The form of CDK1 (cyclin dependent kinase 1) used was isolated from insect cells expressing both the human CDK1 catalytic subunit and its positive regulatory subunit cyclin B (CDK1:cyclin B protein, New England Biolabs, Beverly, Mass., Cat. #6020). The form of CDK4 (cyclin dependent kinase 4) used contains amino acids 769 to 921 of the mouse […] protein found in the GST-retinoblastoma protein construct (Santa Cruz Biotechnology, Santa Cruz, Calif.; Cat. #SC-4112). The form of EGF-R1 (epidermal growth factor receptor 1) used was purified from human A431 cell membranes (Sigma, St. Louis, Mo., Cat.# E3641). […]

T1 sequence (O08775 786-1343): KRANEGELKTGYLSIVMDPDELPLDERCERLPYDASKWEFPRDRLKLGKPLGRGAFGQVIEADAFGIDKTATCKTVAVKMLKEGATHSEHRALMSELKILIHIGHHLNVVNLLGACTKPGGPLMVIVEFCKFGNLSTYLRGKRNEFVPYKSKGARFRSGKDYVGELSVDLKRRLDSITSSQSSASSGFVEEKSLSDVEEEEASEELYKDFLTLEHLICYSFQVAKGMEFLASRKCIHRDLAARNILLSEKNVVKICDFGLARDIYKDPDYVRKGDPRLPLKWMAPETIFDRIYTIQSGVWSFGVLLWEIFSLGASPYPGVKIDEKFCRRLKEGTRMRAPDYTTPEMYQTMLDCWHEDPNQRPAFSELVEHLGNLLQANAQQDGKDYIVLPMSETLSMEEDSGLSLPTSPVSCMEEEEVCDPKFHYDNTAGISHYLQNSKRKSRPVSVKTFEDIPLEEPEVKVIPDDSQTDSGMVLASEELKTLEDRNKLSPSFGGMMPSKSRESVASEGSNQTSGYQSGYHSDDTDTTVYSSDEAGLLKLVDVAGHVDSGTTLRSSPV

As for `OCCCNc1cncc(-c2ncnc(Nc3cccc(Cl)c3)n2)c1` [Compound 1, 3-((5-(4-((3-chlorophenyl)amino)-1,3,5-triazin-2-yl)-3-pyridinyl)amino)-1-propanol], the IC50 in test [1] was 298 nM; in test [2], 2560 nM.
In the case of `OCCCNc1cc(-c2ncnc(Nc3cccc(Cl)c3)n2)ccn1` [Compound 2, 3-((4-(4-((3-chlorophenyl)amino)-1,3,5-triazin-2-yl)-2-pyridinyl)amino)-1-propanol], the concentration for half-maximal inhibition (IC50) in test [1] is 105 nM; in test [2], 2560 nM and 2570 nM.
